Measured values as given in patent publication US20190167771A1, “CONTROL ANGIOGENESIS BY REGULATING PHOSPHORYLATION OF SERYL-tRNA SYNTHETASE (SerRS)” (The Scripps Research Institute, priority 2016, published 2019).

Key:
MDA-MB-231 cells = test: MDA-MB-231 tumor xenograft model, tumor angiogenesis and growth; assay type: in vivo, mouse; conditions: for tumor angiogenesis (CD31 staining): MDA-MB-231 stably transfected with human SerRS gene (~10-fold overexpression), NSG mice, two weeks
Description: In FIG. 5A, human breast cancer cells MDA-MB-231 were stably transfected with human wild type (SerRS^WT) and mutant SerRS (SerRS^AA, SerRS^DD). The expression of SerRS was monitored by immunoblot. In FIGS. 5B-C, the engineered MDA-MB-231 cells (10^6 per mouse) were implanted into mouse fat pad in mammal glands to form tumor xenografts. 14 days later, tumor xenografts were excised and subjected to immunohistochemistry for CD31 (FIG. 5B) and subsequent quantification of blood vessels (FIG. 5C) (n=5-6). In FIGS. 5D-F, MDA-MB-231 cells (10^6 per mouse) stably transfected with SerRS^WT, SerRS^AA, HIF1-specific shRNA (HIF^KD), both SerRS^AA and HIF^KD or empty vector were implanted into mouse fat pad in mammal glands. The sizes of the tumor xenografts were measured until the mice were sacrificed on 35 days (FIG. 5D) and the tumor angiogenesis was measured by immunohistochemistry for CD31 (FIG. 5E) and VEGFA (FIG. 5F) (n=4-10). Scale bars represent 100 μm.
[…] MDA-MB-231 cells stably transfected with vectors expressing wild type human SerRS, SerRS^S101A/S241A, or SerRS^S101D/S241D were subcutaneously injected into the mammal glands of 6-8-week-old female NOD.Cg-Prkdc^scidIl2rg^tmJWjl/SzJ mice (six mice in each group) (Jackson Laboratory). 14 days after injection, the tumor xenograft were separated from mice and frozen in Tissue-Tek® OCT compound for cryostat sectioning.
5-μm sections from freshly frozen tumor xenograft and matrigel plugs were treated with acetone and 3% H2O2 to block endogenous peroxidase. After 3-5 times wash and goat serum block, the sections were incubated with an anti-CD31 antibody (1:3000; Cell Signaling Technology) overnight at 4° C. The blood vessels were counted in 5-10 random viable fields (120×) in tumor xenograft samples and microvessel density in matrigel plugs was quantified by measuring the CD31 staining density using Image J software. To detect the hypoxia, we incubated the slides with anti-HIF1α antibody (1:100; Novus Biologicals).
This example describes experiments studying the activity of SerRS^S101A/S241A and the effect of SerRS phosphorylation in hypoxia-induced angiogenesis in mammal.
Because hypoxia-induced angiogenesis is critical for solid tumor growth, experiments were performed to determine if hypoxia-induced SerRS phosphorylation/inactivation is important for tumor angiogenesis. Human breast cancer cells MDA-MB-231 were stably transfected with human SerRS^WT, SerRS^S101A/S241A, or SerRS^S101D/S241D gene to give high levels of overexpression (˜10-fold) compare to that of the endogenous protein (FIG. 4D). The engineered cells were implanted subcutaneously into the mammal glands of immune deficient NOD scid gamma (NSG) mice. Two weeks later, the vasculature in the tumor xenografts were examined by CD31 staining (FIGS. 4E and 4F). […]

zebrafish embryos = test: Intersegmental vessel (ISV) branching in zebrafish embryos; assay type: in vivo; conditions: human SerRS mRNA co-injected with SerRS-MO, 3 dpf
Description: In FIG. 2A, wild type SerRS (SerRS^WT), its mutants with double substitutions of serine 101 and 241 with alanine or aspartic acid residues (SerRS^S101A/S241A and SerRS^S101D/S241D), or empty vector were transfected into HEK293 cells. The expression levels of SerRS proteins was measured by immunoblot (bottom) and VEGFA expression was determined by qRT-PCR (means±SEM from three independent experiments; ***P<0.0001). In FIGS. 2B-D, the roles of SerRS^S101A/S241A and SerRS^S101D/S241D in regulating vascular development in vivo in zebrafish were examined by co-injection of SerRS^S101A/S241A and SerRS^S101D/S241D mRNAs into one-cell-stage embryos whose endogenous SerRS was knocked down by injection of antisense morpholino (SerRS-MO) that led to abnormal high expression of Vegfa and hypervascularization (shown by short bold arrows in FIG. 2C). At 3 day post fertilization (dpf), embryos were harvested and Vegfa expression levels were measured by qRT-PCR (means±SEM, n=125-211; *P<0.01, **P<0.001) (B). The development of intersegmental vessel (ISV) at 3 dpf was examined (C) and the statistics of ISV abnormal branching rescued by SerRS^WT or mutant SerRS mRNA injections was analyzed (D; χ^2-test,* P>0.05 vs SerRS^WT, **P>0.1 vs SerRS-MO, ***P<1×10^−28 vs control-MO). In FIG. 2E, the binding affinities of SerRS^WT or SerRS^S101D/S241D with ^32P labeled DNA fragments corresponding to SerRS binding site on human VEGFA promoter were examined by EMSA. In FIG. 2F, the binding of SerRS^WT, SerRS^S101A/S241A, or SerRS^S101D/S241D on VEGFA promoter in HEK293 cells was examined by chromatin immunoprecipitation (ChIP) and qPCR (means±SEM from two independent experiments; ***P<0.0001). In FIG. 2G, the binding of endogenous SerRS on VEGFA promoter during hypoxia course was monitored by ChIP (means±SEM from three independent experiments; *P<0.05, **P<0.005 vs normal).
Transgenic Tg (Fli1a: EGFP) fish were maintained as we described before (Ref). The fish embryos were kept at 28.5° C. before and after microinjection. The antisense morpholino (MOs) targeting SerRS was injected into the yolk of 1-cell stage embryos at the dosage of 4˜5 ng per embryo. The sequence of SerRS-MO is (Ref). The SerRS-MO (5′ AGGAGAATGTGAACAAACCTGACAC 3′ (SEQ ID NO: 34)) and standard control MO (5′ CCTCTTACCTCAGTTACAATTTATA 3′ (SEQ ID NO: 35)) were purchased from Gene Tools, LLC (Philomath, Oreg. USA). After injection, embryos were incubated in E3 embryo medium supplemented with 0.003% 1-phenyl-2-thiourea (PTU) at 28.5° C. to prevent pigment formation. […] The rescue effects of different SerRS mutants on ISV development were analyzed with χ^2 test. […]

SerRS^S101A/S241A: phosphorylation-deficient human SerRS double mutant, serine 101 and 241 to alanine, SEQ ID NO: 4 (mouse version in matrigel assay)
tumor angiogenesis (CD31 staining) (MDA-MB-231 cells): much stronger inhibition of angiogenesis compared to SerRS^WT
angiogenesis and tumor growth compared with HIF-1 knockdown (MDA-MB-231 cells; murine model of triple negative human breast cancer, overexpression): suppress angiogenesis and tumor growth much more robustly than the knockdown of HIF-1
zebrafish embryos with abnormal hyper-ISV branching phenotype (zebrafish embryos): 26.4%

SerRS^S101D/S241D: SerRS with double substitutions of S101 and S241 with aspartic acid, mimics the phosphorylated SerRS
tumor angiogenesis (CD31 staining) (MDA-MB-231 cells): strong activity in promoting tumor angiogenesis
zebrafish embryos with abnormal hyper-ISV branching phenotype (zebrafish embryos): 62.7%

SerRS^WT: wildtype human seryl-tRNA synthetase protein, SEQ ID NO: 1 (mouse wild type used in the 3B11 matrigel assay)
tumor angiogenesis (CD31 staining) (MDA-MB-231 cells): suppressed tumor angiogenesis
zebrafish embryos with abnormal hyper-ISV branching phenotype (zebrafish embryos): 17.9%
